Source: patent publication US7183260B2, “C-terminal modified oxamyl dipeptides as inhibitors of the ICE/ced-3 family of cysteine proteases” (Idun Pharmaceuticals, Inc., priority 1998, dated 2007)
Read-outs that look alike come from different tables or passages of the source.

What was measured:
Format in all cases: biochemical
[1] = biological target: T1, CPP32 (Homo sapiens, UniProt P42574); assay: Dissociation constant Ki and irreversible rate constant k3 for irreversible inhibitors (CPP32)
T1 sequence (P42574 29-175 limits assumed): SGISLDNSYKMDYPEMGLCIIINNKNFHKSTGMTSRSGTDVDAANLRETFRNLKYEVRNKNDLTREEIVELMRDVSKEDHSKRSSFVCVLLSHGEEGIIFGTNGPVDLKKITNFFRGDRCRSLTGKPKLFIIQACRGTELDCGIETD
T1 sequence (P42574 176-277 limits assumed): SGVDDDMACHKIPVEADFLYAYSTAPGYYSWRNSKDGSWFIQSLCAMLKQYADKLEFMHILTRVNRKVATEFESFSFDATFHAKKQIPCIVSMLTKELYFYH

[2] = biological target: T2, mICE (Mus musculus, UniProt P29452); assay: Dissociation constant Ki and irreversible rate constant k3 for irreversible inhibitors (ICE)
T2 sequence (P29452 123-296 limits assumed): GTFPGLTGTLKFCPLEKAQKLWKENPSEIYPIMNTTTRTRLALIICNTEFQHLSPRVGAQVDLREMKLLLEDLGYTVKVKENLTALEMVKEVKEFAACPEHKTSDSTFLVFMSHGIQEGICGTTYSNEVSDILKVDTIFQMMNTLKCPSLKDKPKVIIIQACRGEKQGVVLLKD
T2 sequence (P29452 315-402 limits assumed): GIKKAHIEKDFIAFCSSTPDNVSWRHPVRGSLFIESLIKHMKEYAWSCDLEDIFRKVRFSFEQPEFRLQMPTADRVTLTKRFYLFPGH

[3] = biological target: T3, MCH-2 (Homo sapiens, UniProt P55212); assay: Dissociation constant Ki and irreversible rate constant k3 for irreversible inhibitors (Mch2)
T3 sequence (P55212 24-179 limits assumed): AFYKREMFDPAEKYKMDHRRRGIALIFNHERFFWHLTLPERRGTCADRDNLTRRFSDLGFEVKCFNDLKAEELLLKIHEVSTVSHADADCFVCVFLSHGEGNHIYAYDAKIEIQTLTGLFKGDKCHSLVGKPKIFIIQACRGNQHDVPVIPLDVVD
T3 sequence (P55212 194-293 limits assumed): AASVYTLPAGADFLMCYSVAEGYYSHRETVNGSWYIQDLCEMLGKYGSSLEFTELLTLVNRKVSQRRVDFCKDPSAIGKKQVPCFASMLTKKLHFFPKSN

[4] = biological target: MCH-5 (Homo sapiens, UniProt Q14790); assay: Dissociation constant Ki and irreversible rate constant k3 for irreversible inhibitors (Mch5)
[5] = continuous assay 60 min, reaction initiated by adding enzyme to substrate-inhibitor mixture

Sequence of MCH-5 (Q14790 217-374 limits assumed, species assumed): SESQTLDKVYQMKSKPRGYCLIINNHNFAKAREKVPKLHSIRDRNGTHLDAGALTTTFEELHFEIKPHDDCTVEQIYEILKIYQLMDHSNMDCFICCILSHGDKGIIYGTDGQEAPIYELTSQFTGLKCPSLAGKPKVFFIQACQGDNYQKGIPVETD
Sequence of MCH-5 (Q14790 385-479 limits assumed, species assumed): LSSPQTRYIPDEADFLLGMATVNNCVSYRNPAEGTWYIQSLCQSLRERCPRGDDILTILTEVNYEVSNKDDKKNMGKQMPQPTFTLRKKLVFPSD

C[C@H](NC(=O)C(=O)NCc1ccccc1)C(=O)N[C@@H](CC(=O)O)C(=O)COC(=O)c1c(Cl)cccc1Cl [Example 52]
CPP32 k3/Ki [1, 5]: 600,000 moles^−1 seconds^−1
Ki [1, 5]: 0.029 µM
Ki [2, 5]: 0.34 µM
mICE k3/Ki [2, 5]: 59,100 moles^−1 seconds^−1
Ki [3, 5]: 0.02 µM
MCH-2 k3/Ki [3, 5]: 244,000 moles^−1 seconds^−1
Ki [4, 5]: 0.062 µM
MCH-5 k3/Ki [4, 5]: 203,000 moles^−1 seconds^−1

C[C@H](NC(=O)C(=O)NC12CC3CC(CC(C3)C1)C2)C(=O)N[C@@H](CC(=O)O)C(=O)COP(=O)(c1ccccc1)c1ccccc1 [Example 53]
CPP32 k3/Ki [1]: 149,000 moles^−1 seconds^−1
Ki [1]: 0.134 µM
Ki [2]: 0.462 µM
mICE k3/Ki [2]: 27,600 moles^−1 seconds^−1
Ki [3]: 0.042 µM
MCH-2 k3/Ki [3]: 124,000 moles^−1 seconds^−1
Ki [4]: 0.077 µM
MCH-5 k3/Ki [4]: 50,400 moles^−1 seconds^−1

C[C@H](NC(=O)C(=O)NC12CC3CC(CC(C3)C1)C2)C(=O)N[C@@H](CC(=O)O)C(=O)COC(=O)c1c(Cl)cccc1Cl [Example 54]
CPP32 k3/Ki [1]: 20,500 moles^−1 seconds^−1
Ki [1]: 0.409 µM
Ki [2]: 0.348 µM
mICE k3/Ki [2]: 46,000 moles^−1 seconds^−1
Ki [3]: 0.12 µM
MCH-2 k3/Ki [3]: 21,100 moles^−1 seconds^−1
Ki [4]: 0.08 µM
MCH-5 k3/Ki [4]: 18,700 moles^−1 seconds^−1

C[C@H](NC(=O)C(=O)NC1CCCCC1)C(=O)N[C@@H](CC(=O)O)C(=O)COC(=O)c1c(Cl)cccc1Cl [Example 55]
CPP32 k3/Ki [1, 5]: 1,174,000 moles^−1 seconds^−1
Ki [1, 5]: 0.013 µM
Ki [2, 5]: 0.0061 µM
mICE k3/Ki [2, 5]: 2,020,000 moles^−1 seconds^−1
Ki [3, 5]: 0.0063 µM
MCH-2 k3/Ki [3, 5]: 655,000 moles^−1 seconds^−1
Ki [4, 5]: 0.0026 µM
MCH-5 k3/Ki [4, 5]: 2,140,000 moles^−1 seconds^−1

C[C@H](NC(=O)C(=O)NC1CCCCC1)C(=O)N[C@@H](CC(=O)O)C(=O)COP(=O)(c1ccccc1)c1ccccc1 [Example 56]
CPP32 k3/Ki [1, 5]: 137,000 moles^−1 seconds^−1
Ki [1, 5]: 0.096 µM
Ki [2, 5]: 0.0053 µM
mICE k3/Ki [2, 5]: 2,032,000 moles^−1 seconds^−1
Ki [3, 5]: 0.025 µM
MCH-2 k3/Ki [3, 5]: 97,500 moles^−1 seconds^−1
Ki [4, 5]: 0.0025 µM
MCH-5 k3/Ki [4, 5]: 1,790,000 moles^−1 seconds^−1

C[C@H](NC(=O)C(=O)Nc1ccccc1Cl)C(=O)N[C@@H](CC(=O)O)C(=O)COP(=O)(c1ccccc1)c1ccccc1 [Example 57]
CPP32 k3/Ki [1, 5]: 564,000 moles^−1 seconds^−1
Ki [1, 5]: 0.044 µM
Ki [2, 5]: 0.0053 µM
mICE k3/Ki [2, 5]: 1,980,000 moles^−1 seconds^−1
Ki [3, 5]: 0.013 µM
MCH-2 k3/Ki [3, 5]: 373,000 moles^−1 seconds^−1
Ki [4, 5]: 0.0021 µM
MCH-5 k3/Ki [4, 5]: 2,330,000 moles^−1 seconds^−1

C[C@H](NC(=O)C(=O)Nc1ccccc1Cl)C(=O)N[C@@H](CC(=O)O)C(=O)COC(=O)c1c(Cl)cccc1Cl [Example 58]
CPP32 k3/Ki [1, 5]: 323,000 moles^−1 seconds^−1
Ki [1, 5]: 0.043 µM
Ki [2, 5]: 0.054 µM
mICE k3/Ki [2, 5]: 278,000 moles^−1 seconds^−1
Ki [3, 5]: 0.018 µM
MCH-2 k3/Ki [3, 5]: 281,000 moles^−1 seconds^−1
Ki [4, 5]: 0.0071 µM
MCH-5 k3/Ki [4, 5]: 396,000 moles^−1 seconds^−1

C[C@H](NC(=O)C(=O)Nc1cc(C(C)(C)C)ccc1C(C)(C)C)C(=O)N[C@@H](CC(=O)O)C(=O)COP(=O)(c1ccccc1)c1ccccc1 [Example 59]
CPP32 k3/Ki [1, 5]: 104,000 moles^−1 seconds^−1
Ki [1, 5]: 0.071 µM
Ki [2, 5]: 0.045 µM
mICE k3/Ki [2, 5]: 211,000 moles^−1 seconds^−1
Ki [3, 5]: 0.015 µM
MCH-2 k3/Ki [3, 5]: 308,000 moles^−1 seconds^−1
Ki [4, 5]: 0.0055 µM
MCH-5 k3/Ki [4, 5]: 1,340,000 moles^−1 seconds^−1

C[C@H](NC(=O)C(=O)Nc1cc(C(C)(C)C)ccc1C(C)(C)C)C(=O)N[C@@H](CC(=O)O)C(=O)COC(=O)c1c(Cl)cccc1Cl [Example 60]
CPP32 k3/Ki [1, 5]: 189,000 moles^−1 seconds^−1
Ki [1, 5]: 0.058 µM
Ki [2, 5]: 0.026 µM
mICE k3/Ki [2, 5]: 289,000 moles^−1 seconds^−1
Ki [3, 5]: 0.049 µM
MCH-2 k3/Ki [3, 5]: 146,000 moles^−1 seconds^−1
Ki [4, 5]: 0.014 µM
MCH-5 k3/Ki [4, 5]: 306,000 moles^−1 seconds^−1

C[C@H](NC(=O)C(=O)Nc1cccc2c1CCCC2)C(=O)N[C@@H](CC(=O)O)C(=O)COP(=O)(c1ccccc1)c1ccccc1 [Example 61]
CPP32 k3/Ki [1, 5]: 157,000 moles^−1 seconds^−1
Ki [1, 5]: 0.069 µM
Ki [2, 5]: 0.023 µM
mICE k3/Ki [2, 5]: 315,000 moles^−1 seconds^−1
Ki [3, 5]: 0.019 µM
MCH-2 k3/Ki [3, 5]: 120,000 moles^−1 seconds^−1
Ki [4, 5]: 0.038 µM
MCH-5 k3/Ki [4, 5]: 71,800 moles^−1 seconds^−1

C[C@H](NC(=O)C(=O)Nc1cccc2c1CCCC2)C(=O)N[C@@H](CC(=O)O)C(=O)COC(=O)c1c(Cl)cccc1Cl [Example 62]
CPP32 k3/Ki [1, 5]: 149,000 moles^−1 seconds^−1
Ki [1, 5]: 0.101 µM
Ki [2, 5]: 1.02 µM
mICE k3/Ki [2, 5]: 16,900 moles^−1 seconds^−1
Ki [3, 5]: 0.023 µM
MCH-2 k3/Ki [3, 5]: 126,000 moles^−1 seconds^−1
Ki [4, 5]: 0.09 µM
MCH-5 k3/Ki [4, 5]: 21,200 moles^−1 seconds^−1

C[C@H](NC(=O)C(=O)Nc1ccccc1F)C(=O)N[C@@H](CC(=O)O)C(=O)COc1c(F)c(F)cc(F)c1F [Example 66]
CPP32 k3/Ki [1, 5]: 478,000 moles^−1 seconds^−1
Ki [1, 5]: 0.028 µM
Ki [2, 5]: 0.025 µM
mICE k3/Ki [2, 5]: 339,000 moles^−1 seconds^−1
Ki [3, 5]: 0.019 µM
MCH-2 k3/Ki [3, 5]: 212,000 moles^−1 seconds^−1
Ki [4, 5]: 0.013 µM
MCH-5 k3/Ki [4, 5]: 170,000 moles^−1 seconds^−1

C[C@H](NC(=O)C(=O)NCCc1ccccc1)C(=O)N[C@@H](CC(=O)O)C(=O)COP(=O)(c1ccccc1)c1ccccc1 [Example 72]
CPP32 k3/Ki [1, 5]: 169,000 moles^−1 seconds^−1
Ki [1, 5]: 0.094 µM
Ki [2, 5]: 0.012 µM
mICE k3/Ki [2, 5]: 1,230,000 moles^−1 seconds^−1
Ki [3, 5]: 0.026 µM
MCH-2 k3/Ki [3, 5]: 131,000 moles^−1 seconds^−1
Ki [4, 5]: 0.0081 µM
MCH-5 k3/Ki [4, 5]: 667,000 moles^−1 seconds^−1

C[C@H](NC(=O)C(=O)Nc1ccccc1I)C(=O)N[C@@H](CC(=O)O)C(=O)COP(=O)(c1ccccc1)c1ccccc1 [Example 74]
CPP32 k3/Ki [1, 5]: 78,300 moles^−1 seconds^−1
Ki [1, 5]: 0.161 µM
Ki [2, 5]: 0.303 µM
mICE k3/Ki [2, 5]: 36,300 moles^−1 seconds^−1
Ki [3, 5]: 0.078 µM
MCH-2 k3/Ki [3, 5]: 66,200 moles^−1 seconds^−1
Ki [4, 5]: 0.07 µM
MCH-5 k3/Ki [4, 5]: 46,300 moles^−1 seconds^−1

C[C@H](NC(=O)C(=O)Nc1ccccc1I)C(=O)N[C@@H](CC(=O)O)C(=O)COC(=O)c1c(Cl)cccc1Cl [Example 75]
CPP32 k3/Ki [1, 5]: 67,600 moles^−1 seconds^−1
Ki [1, 5]: 0.105 µM
Ki [2, 5]: 0.013 µM
mICE k3/Ki [2, 5]: 1,270,000 moles^−1 seconds^−1
Ki [3, 5]: 0.034 µM
MCH-2 k3/Ki [3, 5]: 28,200 moles^−1 seconds^−1
Ki [4, 5]: 0.004 µM
MCH-5 k3/Ki [4, 5]: 551,000 moles^−1 seconds^−1

C[C@H](NC(=O)C(=O)Nc1ccccc1C(C)(C)C)C(=O)N[C@@H](CC(=O)O)C(=O)COC(=O)c1c(Cl)cccc1Cl [Example 76]
CPP32 k3/Ki [1, 5]: 62,900 moles^−1 seconds^−1
Ki [1, 5]: 0.085 µM
Ki [2, 5]: 0.019 µM
mICE k3/Ki [2, 5]: 537,000 moles^−1 seconds^−1
Ki [3, 5]: 0.235 µM
MCH-2 k3/Ki [3, 5]: 6,960 moles^−1 seconds^−1
Ki [4, 5]: 0.022 µM
MCH-5 k3/Ki [4, 5]: 30,200 moles^−1 seconds^−1
